Measurements published in US8008484B2 (priority 2004, dated 2011).

Experiments:
[1] = system: Cucumber (variety: SAGAMI HANPAKU); experiment: Phytotoxicity studied in the Botrytis cinerea foliage test; assay type: in vivo; details: cucumber seedlings, foliar spray, 500 ppm
Procedure: Cucumber (variety: SAGAMI HANPAKU) was cultivated in a plastic pot of 4 cm diameter. A diluted solution of an active compound of the prescribed concentration, prepared in a similar manner as in the above-mentioned Test Example 1, was sprayed to seedlings reached to cotyledon in an amount of 6 ml per 2 pots. One day after the spraying, an inoculant, prepared by mixing a suspension of artificially cultured spores of Botrytis cinerea and agar gel (2×10^4 spores/ml gel), was placed on cotyledons to inoculate and infected in a moisture box kept at 20° C. Four days after the inoculation, the contraction rate per cotyledon was classified and evaluated according to the following standard to obtain the controlling value (%). Phytotoxicity was also studied at the same time. This test is an average of the results of 2 sections 4 cotyledons.

[2] = system: Paddy rice (variety: KOSIHIKARI); details: foliar spray, 500 ppm

Compound	Phytotoxicity [1]	Phytotoxicity [2]
COc1cc(OC)nc(C(O)c2cc(C)cc(F)c2NS(=O)(=O)C(F)F)n1 (racemic) [Compound 4-107]	No phytotoxicity was observed	–
COc1cc(OC)nc(C(O)c2cc(C)cc(Cl)c2NS(=O)(=O)C(F)F)n1 (racemic) [Compound 4-130]	No phytotoxicity was observed	No phytotoxicity was observed
COc1cc(OC)nc(C(O)c2ccc(F)c(C)c2NS(=O)(=O)C(F)F)n1 (racemic) [Compound 4-184]	–	No phytotoxicity was observed
COc1cc(OC)nc(C(O)c2ccc(F)cc2NS(=O)(=O)C(F)F)n1 (racemic) [Compound 4-186]	No phytotoxicity was observed	–
COc1cc(OC)nc(C(O)c2ccc(C)c(C)c2NS(=O)(=O)C(F)F)n1 (racemic) [Compound 4-187]	No phytotoxicity was observed	–
COc1cc(OC)nc(C(O)c2cc(C)cc(F)c2NS(=O)(=O)CC(F)(F)F)n1 (racemic) [Compound 12-131]	–	No phytotoxicity was observed
COc1cc(OC)nc(C(O)c2ccc(F)c(C)c2NS(=O)(=O)CC(F)(F)F)n1 (racemic) [Compound 12-137]	–	No phytotoxicity was observed
COc1cc(OC)nc(C(SC)c2cccc(F)c2NS(=O)(=O)C(F)F)n1 (stereo not shown) [Compound 1-14]	No phytotoxicity was observed	–
COc1cc(OC)nc(Cc2ccccc2NS(=O)(=O)C(F)F)n1 [Compound 2-1]	No phytotoxicity was observed	–
COc1cc(OC)nc(Cc2cccc(F)c2N(C(C)=O)S(=O)(=O)C(F)F)n1 [Compound 2-18]	No phytotoxicity was observed	–
COc1cc(OC)nc(Cc2cccc(Cl)c2N(C(C)=O)S(=O)(=O)C(F)F)n1 [Compound 2-31]	No phytotoxicity was observed	No phytotoxicity was observed
COC(=O)N(c1c(Cl)cccc1Cc1nc(OC)cc(OC)n1)S(=O)(=O)C(F)F [Compound 2-32]	–	No phytotoxicity was observed
COc1cc(OC)nc(Cc2ccc(F)cc2NS(=O)(=O)C(F)F)n1 [Compound 2-61]	–	No phytotoxicity was observed
COc1cc(OC)nc(Cc2cc(F)ccc2NS(=O)(=O)C(F)F)n1 [Compound 2-62]	–	No phytotoxicity was observed
COc1cc(OC)nc(Cc2ccc(F)c(F)c2NS(=O)(=O)C(F)F)n1 [Compound 2-110]	No phytotoxicity was observed	–
COc1cc(OC)nc(Cc2cc(F)c(Cl)c(F)c2NS(=O)(=O)C(F)F)n1 [Compound 2-125]	–	No phytotoxicity was observed
COc1cc(OC)nc(Cc2c(Cl)ccc(Cl)c2NS(=O)(=O)C(F)F)n1 [Compound 2-138]	No phytotoxicity was observed	–
COc1cc(OC)nc(Cc2cc(C)c(F)cc2NS(=O)(=O)C(F)F)n1 [Compound 2-190]	–	No phytotoxicity was observed
COc1cc(OC)nc(Cc2cccc(Cl)c2N(C(=O)C2CC2)S(=O)(=O)C(F)F)n1 [Compound 2-191]	No phytotoxicity was observed	No phytotoxicity was observed
COc1cc(OC)nc(Cc2cc(C)cc(C)c2NS(=O)(=O)C(F)F)n1 [Compound 2-192]	No phytotoxicity was observed	–
COc1cc(OC)nc(Cc2ccc(F)c(C)c2NS(=O)(=O)C(F)F)n1 [Compound 2-193]	–	No phytotoxicity was observed
COc1cc(OC)nc(C(=O)c2cccc(Cl)c2N(C(C)=O)S(=O)(=O)C(F)F)n1 [Compound 3-22]	–	No phytotoxicity was observed
COc1cc(OC)nc(C(=O)c2cccc(F)c2NS(=O)(=O)C(F)F)n1 [Compound 9-25]	No phytotoxicity was observed	–

Compound	Phytotoxicity [1]	Phytotoxicity [2]
COc1cc(OC)nc(C(=O)c2cccc(Cl)c2NS(=O)(=O)C(F)F)n1 [Compound 9-26]	No phytotoxicity was observed	–
COc1nc(OC)nc(C(=O)c2ccccc2NS(=O)(=O)C(F)F)n1 [Compound 9-48]	No phytotoxicity was observed	–
COc1cc(OC)nc(C(Cl)c2cccc(F)c2NS(=O)(=O)C(F)(F)F)n1 (stereo not shown) [Compound 12-127]	–	No phytotoxicity was observed
COc1cc(OC)nc(Cc2cccc(F)c2NS(=O)(=O)C(Cl)Cl)n1 [Compound 12-136]	No phytotoxicity was observed	–
COc1cc(OC)nc(Cc2ccc(F)c(C)c2NS(=O)(=O)CC(F)(F)F)n1 [Compound 13-8]	No phytotoxicity was observed	–
COc1cc(OC)nc(Cc2ccccc2NS(=O)(=O)C(F)(F)F)n1 [Compound 14-2]	No phytotoxicity was observed	–
COc1cc(OC)nc(Cc2cccc(F)c2NS(=O)(=O)CCl)n1 [Compound 14-8]	No phytotoxicity was observed	–
COc1cc(OC)nc(Cc2cccc(Cl)c2NS(=O)(=O)C(F)(F)F)n1 [Compound 14-20]	No phytotoxicity was observed	–
COc1cc(OC)nc(Cc2cccc(Cl)c2NS(=O)(=O)CC(F)(F)F)n1 [Compound 14-22]	No phytotoxicity was observed	–
COc1cc(OC)nc(Cc2cccc(Cl)c2NS(=O)(=O)C(F)F)n1 [Compound 14-35]	No phytotoxicity was observed	–
COc1cc(OC)nc(Cc2cccc(C)c2NS(=O)(=O)C(F)F)n1 [Compound 14-37]	No phytotoxicity was observed	No phytotoxicity was observed
COCc1c(F)ccc(Cc2nc(OC)cc(OC)n2)c1NS(=O)(=O)C(F)F [Compound 14-40]	No phytotoxicity was observed	–
COc1cc(OC)nc(C(O)c2cccc(F)c2NS(C)(=O)=O)n1 (stereo not shown) [Compound 18-2]	–	No phytotoxicity was observed
COc1cc(OC)nc(C(O)c2cccc(F)c2NS(=O)(=O)CCl)n1 (stereo not shown) [Compound 18-6]	No phytotoxicity was observed	No phytotoxicity was observed
COc1cc(OC)nc(C(O)c2cccc(F)c2NS(=O)(=O)CC(F)(F)F)n1 (stereo not shown) [Compound 18-10]	No phytotoxicity was observed	No phytotoxicity was observed
COc1cc(OC)nc(C(O)c2ccccc2NS(=O)(=O)C(F)(F)F)n1 (stereo not shown) [Compound 18-20]	No phytotoxicity was observed	–
COc1cc(OC)nc(C(O)c2cccc(F)c2NS(=O)(=O)C(F)(F)F)n1 (stereo not shown) [Compound 18-21]	–	No phytotoxicity was observed
COc1cc(OC)nc(C(O)c2ccccc2NS(=O)(=O)C(F)F)n1 (stereo not shown) [Compound 18-24]	No phytotoxicity was observed	No phytotoxicity was observed
COc1cc(OC)nc(C(O)c2cccc(F)c2NS(=O)(=O)C(F)F)n1 (stereo not shown) [Compound 18-25]	No phytotoxicity was observed	–
COc1cc(OC)nc(C(O)c2cccc(Cl)c2NS(=O)(=O)C(F)F)n1 (stereo not shown) [Compound 18-26]	No phytotoxicity was observed	–
COc1nc(OC)nc(C(O)c2cccc(F)c2NS(=O)(=O)C(F)F)n1 (stereo not shown) [Compound 18-51]	No phytotoxicity was observed	–
COc1nc(OC)nc(C(O)c2cccc(C)c2NS(=O)(=O)C(F)F)n1 (stereo not shown) [Compound 18-53]	–	No phytotoxicity was observed
